# Tested on: fresh peripheral blood mononuclear cells (PBMC) / HCV-specific CD4+ T-lymphocytes
# Experiment: Lymphocyte proliferation assay (3H-thymidine incorporation) of PBMC stimulated with HCV peptides
# Type: cell-based, human (patients with acute hepatitis C)
# Settings: for IF (impact factor): peptide 10 μg/ml, 5 days, calculated from n1 (reactions with 3<SI<6), n2 (SI≧6) and m tests, m≧15
# Text: To solve the task, a unique patient collective was identified, namely patients with acute hepatitis C who reach a lasting or at least temporary virus elimination in over 50% of cases. In order to test all possible CD4+ T-cell epitopes, the whole virus was covered with overlapping synthetic peptides from 15 to 20 amino acids long. A standardised lymphocyte proliferation assay was used as the test system. In order to determine both the degree of conservation between various virus sub-types and also the binding promiscuity as regards the relevant genetic background of the patients, a formula was defined based on the frequency of detection of an epitope and the strength of the immune reaction in question.
# The stimulation index (SI) is normally calculated from the raw data of a proliferation assay and represents the multiplication factor of the measured sample in comparison with the control. An SI of 3 is regarded as significant.
# A special patient collective was chosen and examined for HCV specific CD4+ T-cell epitopes relevant for the healing of the disease. The patient collective, namely patients with acute hepatitis C, is difficult to identify, since, on the one hand, they occur with a frequency of approx. 1:100,000 in the German population and, on the other hand, only T-lymphocytes were tested in the acute phase of the disease. This means a considerable limitation in the number of usable samples. Finally, within this patient collective, only patients were considered who were able to clear the virus spontaneously or to control it temporarily (this is only approx. 60% of the patients with acute hepatitis C), since only here has the immune system successfully taken action against the virus.
# As the test system, the so-called “proliferation assay” was carried out according to the following protocol: After density gradient centrifugation on Ficoll gradients of heparinised blood, the fresh peripheral blood mononuclear cells (PBMC) were isolated and suspended in a culture medium (RPMI1640, Gibco). 50 μl of this cell suspension (concentration of 1×10^6 cells per ml) were placed on sterile 96-well culture plates. The cells were stimulated by the addition of the peptides. The final concentration of the peptides was 10 μg/ml. The cell culture plates were cultivated over 5 days at 37° C. and 5% CO2, then mixed with ^3H-thymidine and the incorporation of the radioactive ^3H was measured as a measure of the cell stimulation.
# In our studies, only peptide reactions were regarded as significant whose stimulation index (SI) was greater than 3 (3× higher compared with the controls, or the irrelevant peptides).
# The impact factor (IF) is based on a points system which not only uses the frequency of relevant reactions, i.e. stimulation index (SI) greater than 3, as normal, but also takes into account the strength of these reactions.
# [formula] where • n1 is the sum of the reactions with 3<SI<6, • n2 is the sum of the reactions with SI≧6 and • m is the number of tests against the peptide in question, whereby m≧15.
Sequence,IF (impact factor),also measured
TSMLTDPSHITAETAKRRLA [EP013],26.7,
FTEVDGVRLHRYAPACKPLL [EP012],28.1,
EVTRVGDFHYVTGMTTDNVK [EP010],21.9,
CPCQVPAPEFFTEVDGVRLH [EP011],23.3,
DVVCCSMSYTWTGALITPCA [EP017],23.3,
THYVPESDAAARVTQILSSL [EP006],26.7,
REVSVAAEILRKSRKFPPAM (Hepatitis C virus) [EP015],25.0,
ARSLTPCTCGSSDLY (Hepatitis C virus) [EP002],27.6,
MWKCLIRLKPTLHGP (Hepatitis C virus) [EP004],24.1,
VLVDILAGYGAGVAG (Hepatitis C virus) [EP005],24.1,
GAQITGHVKNGSMRIVGPKT [EP009],23.3,
GPRLGVRATRKTSER (Hepatitis C virus) [EP001],24.0,
SSSASQLSAPSLKATCTTHH [EP014],23.3,
PLLESWKDPDYVPPVVHGCP [EP016],26.7,
SSDLYLVTRHADVIP (Hepatitis C virus) [EP003],23.2,
CSGSWLRDVWDWICTVLTDF [EP008],23.3,
TITQLLKRLHQWINEDCSTP [EP007],43.8,"n1, sum of the reactions with 3<SI<6 (of 16 independent tests): 4; n2, sum of the reactions with SI≧6 (of 16 independent tests): 2; impact factor (worked example in text, m=16 tests): 43.75"

# Source: patent US7270820B2, “CD4+ T-lymphocyte-specific hepatitis C virus epitopes” (Immusystems GmbH, priority 2002, dated 2007)
